This passage reports inhibition results from patent publication EP0637588A1, “ACTIVE OXYGEN INHIBITOR COMPOSITION” (SHISEIDO COMPANY LIMITED, priority 1993, dated 1994).

The test system of this test is polymorphonuclear leukocyte (PMNs). In words: Suppressing action on production of active oxygen from neutrophils (OPZ-stimulated, FCLA dependent chemiluminescence). It counts as cell-based, white Japanese rabbit. Conditions: Oryctolagus cuniculus, PMNs stimulated by opsonized zymosan (OPZ), 37°C, read-out: Suppressing Action on Production of Active Oxygen (Suppressive Rate %). On the procedure: A 400 mL amount of physiological saline solution containing 0.2% glycogen was administered by drip into the abdominal cavity of a white Japanese rabbit having about 3 kg body weight without anesthesia. After 16 hours, 400 ml of sterilized physiological saline solution was administered, the cavity was massaged well, then the ascites was sampled. This was centrifuged at 100 × g to obtain a precipitate which was then suspended in a Hanks Balanced Salt Solution (HBSS) and adjusted to 5 x 10⁵ cells/mL. This was used as the polymorphonuclear leukocyte (PMNs) fraction. The action on the production of active oxygen by opsonized zymosan (OPZ) was studied as follows: To PMNs (480 µl) were added 3,7-dihydro-6-[4-[2-(N'-(5-fluoresceinyl)thioureid)ethoxy]phenyl]-2-methylimidazo[1,2-a]pyradine-3-on·sodium salt (FCLA) (2 µM) and various concentrations of test compounds. The resulting mixture was incubated at 37°C for 10 minutes, OPZ was added in an amount of 5 µL, and then the FCLA dependent chemiluminescence was measured using a photon counter (made by BertHold of Germany) under a constant temperature of 37°C along with the elapse of time.

Regarding `O=C1O[C@H]([C@@H](O)CO)C(O)=C1O` [Ascorbic acid], where the note is “Concentration 0.1 µM”, the inhibition at 0.1 µM stood at 20.1%. Also, the inhibition at 1 µM (Concentration 1.0 µM) stood at 51.7%. Besides, under “Concentration 10 µM”, the inhibition at 10 µM was determined as 86.8%.
